pEC50, pIC50: −log10 of the molar value.
Assays:
STAT6 = biological target: T1, STAT6 (Homo sapiens, UniProt P42226); assay: STAT6 Reporter Luciferase Assay (IL-13 stimulated HaCaT keratinocyte NanoLuc reporter cells); type: cell-based; settings: IL-13 stimulated HaCaT STAT6 NanoLuc reporter cells; read-out: Reporter EC50
T1 construct: stably transfected HaCaT keratinocyte cell line, which expresses NanoLuc luciferase reporter gene under the transcriptional control of the STAT6 responsive promoter; endogenous in cells; host or cells: HaCaT keratinocyte reporter cell line (stably transfected with a NanoLuc reporter)
T1 sequence (P42226 1-847): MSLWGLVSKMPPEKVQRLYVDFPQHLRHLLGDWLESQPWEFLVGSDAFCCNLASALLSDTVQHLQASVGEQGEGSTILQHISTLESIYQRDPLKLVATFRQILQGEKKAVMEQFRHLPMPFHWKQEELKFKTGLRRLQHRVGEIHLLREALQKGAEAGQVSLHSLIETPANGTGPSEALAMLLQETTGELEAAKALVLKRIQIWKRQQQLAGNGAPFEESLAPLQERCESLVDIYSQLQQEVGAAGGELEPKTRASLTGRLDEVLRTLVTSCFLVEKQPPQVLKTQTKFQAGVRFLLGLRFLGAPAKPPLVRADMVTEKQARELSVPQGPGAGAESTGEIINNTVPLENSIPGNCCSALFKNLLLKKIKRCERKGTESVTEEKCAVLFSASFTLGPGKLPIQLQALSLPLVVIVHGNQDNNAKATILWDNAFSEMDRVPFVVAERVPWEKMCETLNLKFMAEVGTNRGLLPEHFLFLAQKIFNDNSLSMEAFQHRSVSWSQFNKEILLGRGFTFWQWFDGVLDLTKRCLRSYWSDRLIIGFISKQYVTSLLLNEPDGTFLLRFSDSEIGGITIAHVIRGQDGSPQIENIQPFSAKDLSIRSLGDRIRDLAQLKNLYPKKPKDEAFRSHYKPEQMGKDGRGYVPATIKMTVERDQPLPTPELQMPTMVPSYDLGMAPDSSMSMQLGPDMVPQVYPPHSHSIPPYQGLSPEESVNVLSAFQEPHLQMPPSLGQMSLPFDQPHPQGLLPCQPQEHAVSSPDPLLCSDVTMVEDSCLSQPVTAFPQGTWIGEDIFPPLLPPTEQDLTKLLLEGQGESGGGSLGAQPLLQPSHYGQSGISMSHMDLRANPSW
Method in brief: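 Stably transfected HaCaT cells carrying NanoLuc under the STAT6-responsive IL-13Ra2 promoter were pre-treated with compound (11-point, 4-fold series, duplicate) for 2 h at 37 °C, then stimulated with 0.12 nM IL-13 for 4 h. Nano-Glo luminescence was read after 15 min.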

[1] = tested on: CCL17 secretion in peripheral human whole blood; assay: Human Whole Blood (HWB) CCL17 TR-FRET Assay (IL-13 stimulated CCL17 secretion); type: cell-based; settings: human whole blood, IL-13 stimulated
Method in brief: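 IC50 values reflect inhibition of IL-13-driven CCL17 release in human whole blood. Blood was preincubated with compound 2 h, stimulated 48 h at 37 °C with IL-13 (10 ng/mL final), and serum CCL17 was measured by TR-FRET.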

SMILES	pEC50 (STAT6)	pIC50 ([1]; 48 hours)	pIC50 ([1]; Homo sapiens, 48 h)
CC1CN(c2ccc(-c3nccn3C)cn2)Cc2c(C(=O)NCc3ccc(NC(=O)N(C)C)cc3)nn(C)c21 (single isomer, unassigned) [Example 204, rel-(R or S)-N-(4-(3,3-dimethylureido)benzyl)-1,7-dimethyl-5-(5-(1-methyl-1H-imidazol-2-yl)pyridin-2-yl)-4,5,6,7-tetrahydro-1H-pyrazolo[4,3-c]pyridine-3-carboxamide]	7.80	6.61	
CCn1nc(C(=O)NCc2ccc(NC(=O)N(C)C)cc2)c2c1[C@H]1CC[C@H]1N(c1ccc(C(=O)N(C)C)cn1)C2 (single isomer, unassigned) [Example 230]	7.85	6.56	
CCn1nc(C(=O)NCc2ccc(NC(=O)N(C)C)cc2)c2c1[C@H]1CC[C@H]1N(c1ccc(C(=O)N(C)C)cn1)C2 (single isomer, unassigned) [Example 231]	8.70	7.64	
CCc1nc(C(=O)NCc2ccc(NC(=O)N(C)C)cc2)c2n1C(C)CN(c1ccc(C(=O)N(C)C)cn1)C2 (single isomer, unassigned) [Example 232, rel-(R or S)-7-(5-(dimethylcarbamoyl)pyridin-2-yl)-N-(4-(3,3-dimethylureido)benzyl)-3-ethyl-5-methyl-5,6,7,8-tetrahydroimidazo[1,5-a]pyrazine-1-carboxamide]	8.70	8.30	
CCc1nc(C(=O)NCc2ccc(NC(=O)N(C)C)cc2)c2n1C(C)CN(c1ccc(C(=O)N(C)C)cn1)C2 (single isomer, unassigned) [Example 233, rel-(R or S)-7-(5-(dimethylcarbamoyl)pyridin-2-yl)-N-(4-(3,3-dimethylureido)benzyl)-3-ethyl-5-methyl-5,6,7,8-tetrahydroimidazo[1,5-a]pyrazine-1-carboxamide]	7.38	7.11	
CCC(C)n1nc(C(=O)NCc2ccc(NC(=O)N(C)C)cc2)c2c1CCN(c1ccc(C(=O)N(C)C)cn1)C2 (single isomer, unassigned) [Example 234, rel-(R or S)-1-(sec-butyl)-5-(5-(dimethylcarbamoyl)pyridin-2-yl)-N-(4-(3,3-dimethylureido)benzyl)-4,5,6,7-tetrahydro-1H-pyrazolo[4,3-c]pyridine-3-carboxamide]	7.70		7.10
CCC(C)n1nc(C(=O)NCc2ccc(NC(=O)N(C)C)cc2)c2c1CCN(c1ccc(C(=O)N(C)C)cn1)C2 (single isomer, unassigned) [Example 235, rel-(R or S)-1-(sec-butyl)-5-(5-(dimethylcarbamoyl)pyridin-2-yl)-N-(4-(3,3-dimethylureido)benzyl)-4,5,6,7-tetrahydro-1H-pyrazolo[4,3-c]pyridine-3-carboxamide]	7.82	7.07	
CC(C1CC1)n1nc(C(=O)NCc2ccc(NC(=O)N(C)C)cc2)c2c1CCN(c1ccc(C(=O)N(C)C)cn1)C2 (single isomer, unassigned) [Example 237, rel-(R or S)-1-(1-cyclopropylethyl)-5-(5-(dimethylcarbamoyl)pyridin-2-yl)-N-(4-(3,3-dimethylureido)benzyl)-4,5,6,7-tetrahydro-1H-pyrazolo[4,3-c]pyridine-3-carboxamide]	8.15		7.08
CCn1nc(C(=O)NCc2ccc(NC(=O)N(C)C)cc2)c2c1CC(C(F)(F)F)N(c1ccc(C(=O)N(C)C)cn1)C2 (single isomer, unassigned) [Example 250, rel-(R or S)-5-(5-(dimethylcarbamoyl)pyridin-2-yl)-N-(4-(3,3-dimethylureido)benzyl)-1-ethyl-6-(trifluoromethyl)-4,5,6,7-tetrahydro-1H-pyrazolo[4,3-c]pyridine-3-carboxamide]	8.70	7.55	
CCn1nc(C(=O)NCc2ccc(NC(=O)N(C)C)cc2)c2c1CC(C(F)(F)F)N(c1ccc(C(=O)N(C)C)cn1)C2 (single isomer, unassigned) [Example 251, rel-(R or S)-5-(5-(dimethylcarbamoyl)pyridin-2-yl)-N-(4-(3,3-dimethylureido)benzyl)-1-ethyl-6-(trifluoromethyl)-4,5,6,7-tetrahydro-1H-pyrazolo[4,3-c]pyridine-3-carboxamide]	8.00	7.10	
C[C@H]1CN(c2ccc(C(=O)N(C)C)cn2)Cc2c(C(=O)NCc3ccc(NC(=O)N(C)C)cc3)nn(C3CCOCC3)c21 (single isomer, unassigned) [Example 258]	8.70		8.10
CCC1Cc2c(c(C(=O)NCc3ccc(NC(=O)N(C)C)cc3)nn2C(C)C)CN1c1ccc(C(=O)N(C)C)cn1 (single isomer, unassigned) [Example 267, rel-(R or S)-5-(5-(dimethylcarbamoyl)pyridin-2-yl)-N-(4-(3,3-dimethylureido)benzyl)-6-ethyl-1-isopropyl-4,5,6,7-tetrahydro-1H-pyrazolo[4,3-c]pyridine-3-carboxamide]	7.30	6.01	
CCC1Cc2c(c(C(=O)NCc3ccc(NC(=O)N(C)C)cc3)nn2C(C)C)CN1c1ccc(C(=O)N(C)C)cn1 (single isomer, unassigned) [Example 268, rel-(R or S)-5-(5-(dimethylcarbamoyl)pyridin-2-yl)-N-(4-(3,3-dimethylureido)benzyl)-6-ethyl-1-isopropyl-4,5,6,7-tetrahydro-1H-pyrazolo[4,3-c]pyridine-3-carboxamide]	8.52	7.68	
CCC1Cc2c(c(C(=O)NCc3ccc(NC(=O)N(C)C)cc3)nn2C)CN1c1ccc(C(=O)N(C)C)cn1 (single isomer, unassigned) [Example 269, rel-(R or S)-5-(5-(dimethylcarbamoyl)pyridin-2-yl)-N-(4-(3,3-dimethylureido)benzyl)-6-ethyl-1-methyl-4,5,6,7-tetrahydro-1H-pyrazolo[4,3-c]pyridine-3-carboxamide]	7.06	6.08	
CCC1Cc2c(c(C(=O)NCc3ccc(NC(=O)N(C)C)cc3)nn2C)CN1c1ccc(C(=O)N(C)C)cn1 (single isomer, unassigned) [Example 270, rel-(R or S)-5-(5-(dimethylcarbamoyl)pyridin-2-yl)-N-(4-(3,3-dimethylureido)benzyl)-6-ethyl-1-methyl-4,5,6,7-tetrahydro-1H-pyrazolo[4,3-c]pyridine-3-carboxamide]	8.15	7.48	
CC(C)C1CN(c2ccc(C(=O)N(C)C)cn2)Cc2c(C(=O)NCc3ccc(NC(=O)N(C)C)cc3)nn(C)c21 (single isomer, unassigned) [Example 271, rel-(R or S)-5-(5-(dimethylcarbamoyl)pyridin-2-yl)-N-(4-(3,3-dimethylureido)benzyl)-7-isopropyl-1-methyl-4,5,6,7-tetrahydro-1H-pyrazolo[4,3-c]pyridine-3-carboxamide]	7.96	6.74	
CC(C)C1CN(c2ccc(C(=O)N(C)C)cn2)Cc2c(C(=O)NCc3ccc(NC(=O)N(C)C)cc3)nn(C)c21 (single isomer, unassigned) [Example 272, rel-(R or S)-5-(5-(dimethylcarbamoyl)pyridin-2-yl)-N-(4-(3,3-dimethylureido)benzyl)-7-isopropyl-1-methyl-4,5,6,7-tetrahydro-1H-pyrazolo[4,3-c]pyridine-3-carboxamide]	8.40	7.52	
C[C@H]1CN(c2ncc(C(=O)N(C)C)cn2)Cc2c(C(=O)NCc3ccc(NC(=O)N(C)C)cc3)nn(C)c21 (single isomer, unassigned) [Example 273]	8.52		7.92
CN(C)C(=O)Nc1ccc(CNC(=O)c2nn(C)c3c2[C@H]2CCC[C@@H](C3)N2c2ccc(C(=O)N(C)C)cn2)cc1 (single isomer, unassigned) [Example 274]	6.16		5.32
CN(C)C(=O)Nc1ccc(CNC(=O)c2nn(C)c3c2[C@H]2CCC[C@@H](C3)N2c2ccc(C(=O)N(C)C)cn2)cc1 (single isomer, unassigned) [Example 275]	8.15	7.52	

— patent US20250320213A1, “Nitrogen-Containing Heterocyclic Compounds” (Pfizer Inc., priority 2024, published 2025)
